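Cells were grown in 96-well plates and exposed to each compound for 48 hours at five concentrations; endpoints were interpolated linearly between bracketing concentrations, or set to the highest concentration if not reached. GI50: concentration for 50% inhibition of growth.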 The source made the active and inactive calls. No stated cut-off is given here; in the data, active = GI50 up to about 1.1 µM and inactive = higher.
Assays:
Assay in all cases: NCI anticancer screen, dose series, 48 h
NCI-H23 = system: NCI-H23
A498 = system: A498
SK-MEL-28 = system: SK-MEL-28
CCRF-CEM = system: CCRF-CEM
OVCAR-8 = system: OVCAR-8
HL-60 = system: HL-60
SW-620 = system: SW-620
HT-29 = system: HT-29
M14 = system: M14
M19-MEL = system: M19-MEL
TK-10 = system: TK-10
HCT-116 = system: HCT-116
LOX IMVI = system: LOX IMVI
SNB-78 = system: SNB-78
MOLT-4 = system: MOLT-4
MDA-N = system: MDA-N
BT-549 = system: BT-549
MDA-MB-435 = system: MDA-MB-435
MDA-MB-231 = system: MDA-MB-231

| Compound | GI50 (NCI-H23) | GI50 (A498) | GI50 (SK-MEL-28) | GI50 (CCRF-CEM) | GI50 (OVCAR-8) | GI50 (HL-60) | GI50 (SW-620) | GI50 (HT-29) | GI50 (M14) | GI50 (M19-MEL) | GI50 (TK-10) | GI50 (HCT-116) | GI50 (LOX IMVI) | GI50 (SNB-78) | GI50 (MOLT-4) | GI50 (MDA-N) | GI50 (BT-549) | GI50 (MDA-MB-435) | GI50 (MDA-MB-231) |
| --- | --- | --- | --- | --- | --- | --- | --- | --- | --- | --- | --- | --- | --- | --- | --- | --- | --- | --- | --- |
| O=C(O)/C=C/c1ccncc1 | > 100 µM (inactive) | > 100 µM (inactive) | > 100 µM (inactive) | > 100 µM (inactive) | > 100 µM (inactive) | > 100 µM (inactive) | > 100 µM (inactive) | > 100 µM (inactive) | > 100 µM (inactive) | > 100 µM (inactive) | > 100 µM (inactive) | > 100 µM (inactive) | > 100 µM (inactive) | > 100 µM (inactive) | > 100 µM (inactive) | – | – | – | – |
| CCOC(=O)C1=C(Nc2ccc(Cl)cc2Cl)OC/C1=N\NS(=O)(=O)c1ccc(C)cc1 | > 100 µM (inactive) | > 100 µM (inactive) | > 100 µM (inactive) | > 100 µM (inactive) | > 100 µM (inactive) | > 100 µM (inactive) | > 100 µM (inactive) | > 100 µM (inactive) | > 100 µM (inactive) | > 100 µM (inactive) | > 100 µM (inactive) | > 100 µM (inactive) | > 100 µM (inactive) | > 100 µM (inactive) | > 100 µM (inactive) | – | – | – | – |
| N#CCCc1nc2ccc(Br)cc2c(=O)n1-c1ccc(O)c([N+](=O)[O-])c1 | 20.8 µM (inactive) | 47.3 µM (inactive) | 19.3 µM (inactive) | 19.7 µM (inactive) | 26.9 µM (inactive) | 17.2 µM (inactive) | 22.1 µM (inactive) | 27.7 µM (inactive) | 21 µM (inactive) | 19.4 µM (inactive) | 34.7 µM (inactive) | – | 19 µM (inactive) | 24.2 µM (inactive) | 19.6 µM (inactive) | – | – | – | – |
| CS/C(=N\C(=S)N(C)C)N(c1ccccc1)c1nc(N(C)C)s[s+]1 | 12.4 µM (inactive) | 1.9 µM (inactive) | 2.21 µM (inactive) | 1.88 µM (inactive) | 10.4 µM (inactive) | 1.61 µM (inactive) | 4.05 µM (inactive) | 2.67 µM (inactive) | 4.83 µM (inactive) | 3.18 µM (inactive) | 40.3 µM (inactive) | 10 µM (inactive) | 5.74 µM (inactive) | 16.9 µM (inactive) | 3.08 µM (inactive) | – | – | – | – |
| CC1(c2cc3c(cc2Br)OCO3)SCCCS1 | 13.3 µM (inactive) | 58.5 µM (inactive) | 78 µM (inactive) | 32.1 µM (inactive) | 47.5 µM (inactive) | 25.1 µM (inactive) | 42.1 µM (inactive) | 32.1 µM (inactive) | 38.3 µM (inactive) | 39.6 µM (inactive) | 33.4 µM (inactive) | 31.7 µM (inactive) | 40 µM (inactive) | 24.3 µM (inactive) | 24.7 µM (inactive) | – | – | – | – |
| CCOC1=CP(=O)(OCC)CC(C)=C1Cl (stereo not drawn) | > 100 µM (inactive) | > 100 µM (inactive) | > 100 µM (inactive) | > 100 µM (inactive) | > 100 µM (inactive) | > 100 µM (inactive) | > 100 µM (inactive) | > 100 µM (inactive) | > 100 µM (inactive) | > 100 µM (inactive) | > 100 µM (inactive) | > 100 µM (inactive) | > 100 µM (inactive) | > 100 µM (inactive) | > 100 µM (inactive) | – | – | – | – |
| N#C/N=C(/N)NCO | > 100 µM (inactive) | > 100 µM (inactive) | > 100 µM (inactive) | > 100 µM (inactive) | > 100 µM (inactive) | > 100 µM (inactive) | > 37.8 µM (inactive) | > 64.1 µM (inactive) | > 100 µM (inactive) | > 60.5 µM (inactive) | > 100 µM (inactive) | > 46 µM (inactive) | > 39.9 µM (inactive) | > 100 µM (inactive) | > 100 µM (inactive) | – | – | – | – |
| Cc1cccc(C(C)(C)C)c1NC(=O)CCc1nnc(S)[nH]1 | > 100 µM (inactive) | > 100 µM (inactive) | > 100 µM (inactive) | > 100 µM (inactive) | > 100 µM (inactive) | > 100 µM (inactive) | > 100 µM (inactive) | > 100 µM (inactive) | > 100 µM (inactive) | > 100 µM (inactive) | > 100 µM (inactive) | > 100 µM (inactive) | > 100 µM (inactive) | > 100 µM (inactive) | > 100 µM (inactive) | – | – | – | – |
| O=C(CC(=O)n1nc(-c2ccccc2)c(/N=N/c2ccc(Cl)cc2)c1-c1ccccc1)Nc1ccc(Cl)cc1 | > 100 µM (inactive) | > 100 µM (inactive) | > 100 µM (inactive) | > 43.5 µM (inactive) | 63.4 µM (inactive) | > 100 µM (inactive) | > 44.1 µM (inactive) | > 43.3 µM (inactive) | > 100 µM (inactive) | > 47.8 µM (inactive) | > 61.1 µM (inactive) | > 39.9 µM (inactive) | > 41.5 µM (inactive) | > 100 µM (inactive) | > 100 µM (inactive) | – | – | – | – |
| CCCC/C=C1\CCC(CN2CCOCC2)C1=O (stereo not drawn) | 5.7 µM (inactive) | 14.1 µM (inactive) | 3.24 µM (inactive) | 0.724 µM (active) | 10 µM (inactive) | 1.57 µM (inactive) | 2.1 µM (inactive) | 3.48 µM (inactive) | 3.32 µM (inactive) | 4.02 µM (inactive) | 9.31 µM (inactive) | 2.04 µM (inactive) | 1.24 µM (inactive) | 8.39 µM (inactive) | 2.02 µM (inactive) | 10.7 µM (inactive) | 3.56 µM (inactive) | 10.7 µM (inactive) | 3.78 µM (inactive) |

Source: ChEMBL document CHEMBL1201862, “PubChem BioAssay data set” (2004)
